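Five compound concentrations were applied to cells in 96-well plates for 48 hours; endpoints were derived by simple linear interpolation of the resulting dose-response curve. The concentration for 50% growth inhibition is given as GI50. TGI: concentration producing complete growth inhibition.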
How the values were obtained:
Assay in all cases: NCI anticancer screen, dose series, 48 h
[1] = system: 786-0 renal
[2] = system: A498 renal
[3] = system: A549 NSCLC
[4] = system: BT-549 breast
[5] = system: CCRF-CEM leukemia
[6] = system: DU-145 prostate
[7] = system: EKVX NSCLC
[8] = system: HCC-2998 colon
[9] = system: HCT-116 colon
[10] = system: HCT-15 colon
[11] = system: HL-60(TB) leukemia
[12] = system: HOP-62 NSCLC
[13] = system: HOP-92 NSCLC
[14] = system: HS 578T breast
[15] = system: HT29 colon
[16] = system: IGROV1 ovarian
[17] = system: K-562 leukemia
[18] = system: KM12 colon
[19] = system: LOX IMVI melanoma
[20] = system: M14 melanoma
[21] = system: MALME-3M melanoma
[22] = system: MCF7 breast
[23] = system: MDA-MB-231 breast
[24] = system: MDA-MB-435
[25] = system: MOLT-4 leukemia
[26] = system: NCI-H226 lung
[27] = system: NCI-H23 lung
[28] = system: NCI-H460 lung
[29] = system: NCI-H522 lung
[30] = system: NCI/ADR-RES ovarian
[31] = system: OVCAR-3 ovarian
[32] = system: OVCAR-4 ovarian
[33] = system: OVCAR-5 ovarian
[34] = system: OVCAR-8 ovarian
[35] = system: PC-3 prostate
[36] = system: RPMI-8226 leukemia
[37] = system: RXF 393 renal
[38] = system: SF-268 CNS
[39] = system: SF-295 CNS
[40] = system: SF-539 CNS
[41] = system: SK-MEL-2 melanoma
[42] = system: SK-MEL-28 melanoma
[43] = system: SK-MEL-5 melanoma
[44] = system: SK-OV-3 ovarian
[45] = system: SN12C renal
[46] = system: SNB-19 CNS
[47] = system: SNB-75 CNS
[48] = system: SR leukemia
[49] = system: SW-620 colon
[50] = system: T-47D breast
[51] = system: TK-10 renal
[52] = system: U251 CNS
[53] = system: UACC-257 melanoma
[54] = system: UACC-62 melanoma
[55] = system: UO-31 renal
[56] = system: ACHN renal
[57] = system: CAKI-1 renal
[58] = system: COLO 205 colon

## COc1cc(C)[nH]c(=O)c1CNC(=O)c1c(C)n([C@H](C)C2CCN(CC(F)(F)F)CC2)c2ccccc12
[1]
  GI50: 60.3 µM
  TGI: > 100 µM
[2]
  GI50: 28.2 µM
  TGI: > 100 µM
[3]
  GI50: 87.4 µM
  TGI: > 100 µM
[4]
  GI50: 33.6 µM
  TGI: > 100 µM
[5]
  GI50: 50.4 µM
  TGI: > 100 µM
[6]
  GI50: 57.8 µM
  TGI: > 100 µM
[7]
  GI50: 37.5 µM
  TGI: > 100 µM
[8]
  GI50: > 100 µM
  TGI: > 100 µM
[9]
  GI50: 59.3 µM
  TGI: > 100 µM
[10]
  GI50: 44 µM
  TGI: > 100 µM
[11]
  GI50: 28.5 µM
  TGI: 82.9 µM
[12]
  GI50: > 100 µM
  TGI: > 100 µM
[13]
  GI50: 78.5 µM
  TGI: > 100 µM
[14]
  GI50: 95.3 µM
  TGI: > 100 µM
[15]
  GI50: 38.5 µM
  TGI: > 100 µM
[16]
  GI50: 49.2 µM
  TGI: > 100 µM
[17]
  GI50: 48.5 µM
  TGI: > 100 µM
[18]
  GI50: 41.6 µM
  TGI: > 100 µM
[19]
  GI50: 41.6 µM
  TGI: > 100 µM
[20]
  GI50: 67.8 µM
  TGI: > 100 µM
[21]
  GI50: 87.8 µM
  TGI: > 100 µM
[22]
  GI50: 25.7 µM
  TGI: > 100 µM
[23]
  GI50: 51 µM
  TGI: > 100 µM
[24]
  GI50: 46 µM
  TGI: > 100 µM
[25]
  GI50: 35.9 µM
  TGI: > 100 µM
[26]
  GI50: 34.4 µM
  TGI: > 100 µM
[27]
  GI50: > 100 µM
  TGI: > 100 µM
[28]
  GI50: 42.9 µM
  TGI: > 100 µM
[29]
  GI50: 80.3 µM
  TGI: > 100 µM
[30]
  GI50: 77.2 µM
  TGI: > 100 µM
[31]
  GI50: 43.3 µM
  TGI: > 100 µM
[32]
  GI50: 41.7 µM
  TGI: > 100 µM
[33]
  GI50: > 100 µM
  TGI: > 100 µM
[34]
  GI50: > 100 µM
  TGI: > 100 µM
[35]
  GI50: 47.4 µM
  TGI: > 100 µM
[36]
  GI50: 32.5 µM
  TGI: > 100 µM
[37]
  GI50: 21.7 µM
  TGI: 99.5 µM
[38]
  GI50: 80.6 µM
  TGI: > 100 µM
[39]
  GI50: 31.8 µM
  TGI: > 100 µM
[40]
  GI50: 67.4 µM
  TGI: > 100 µM
[41]
  GI50: 47.3 µM
  TGI: > 100 µM
[42]
  GI50: 60.8 µM
  TGI: > 100 µM
[43]
  GI50: 19 µM
  TGI: 54.4 µM
[44]
  GI50: 51.8 µM
  TGI: > 100 µM
[45]
  GI50: 43 µM
  TGI: > 100 µM
[46]
  GI50: 74.5 µM
  TGI: > 100 µM
[47]
  GI50: 36.1 µM
  TGI: > 100 µM
[48]
  GI50: 51.8 µM
  TGI: > 100 µM
[49]
  GI50: 65.3 µM
  TGI: > 100 µM
[50]
  GI50: 25.9 µM
  TGI: > 100 µM
[51]
  GI50: 88.5 µM
  TGI: > 100 µM
[52]
  GI50: 90.6 µM
  TGI: > 100 µM
[53]
  GI50: 54.2 µM
  TGI: > 100 µM
[54]
  GI50: 32.5 µM
  TGI: > 100 µM
[55]
  GI50: 28.2 µM
  TGI: > 100 µM

## COC(=O)[C@]12CC[C@@H](C)[C@H](C)[C@@H]1C1=CC[C@@H]3[C@@](C)(CC#N)C4=C(C[C@@]3(C)[C@]1(C)CC2)OC[C@]4(C)C=O
[1]
  GI50: 11.6 µM
  TGI: 71.1 µM
[2]
  GI50: 14.7 µM
  TGI: 28.7 µM
[3]
  GI50: 10.2 µM
  TGI: 25 µM
[56]
  GI50: 6.42 µM
  TGI: > 100 µM
[4]
  GI50: 4.08 µM
  TGI: 32.9 µM
[57]
  GI50: 6.32 µM
  TGI: > 100 µM
[5]
  GI50: 3.49 µM
  TGI: 16.9 µM
[58]
  GI50: 14.4 µM
  TGI: 29.6 µM
[6]
  GI50: 4.78 µM
  TGI: > 100 µM
[7]
  GI50: 4.32 µM
  TGI: 48.7 µM
[8]
  GI50: 5.81 µM
  TGI: 33 µM
[9]
  GI50: 2.78 µM
  TGI: 10.7 µM
[10]
  GI50: 3.1 µM
  TGI: 23.2 µM
[11]
  GI50: 3.03 µM
  TGI: 6.77 µM
[12]
  GI50: 5 µM
  TGI: 36.6 µM
[13]
  GI50: 4.53 µM
  TGI: 34.7 µM
[14]
  GI50: 6 µM
  TGI: 52.3 µM
[15]
  GI50: 5.85 µM
  TGI: 41.5 µM
[16]
  GI50: 5.28 µM
  TGI: > 100 µM
[17]
  GI50: 3.22 µM
  TGI: > 100 µM
[18]
  GI50: 6.46 µM
  TGI: 62.9 µM
[19]
  GI50: 3.11 µM
  TGI: 13.3 µM
[20]
  GI50: 3.46 µM
  TGI: 19.9 µM
[21]
  GI50: 4.76 µM
  TGI: 27.8 µM
[22]
  GI50: 3.05 µM
  TGI: 11.4 µM
[23]
  GI50: 3.34 µM
  TGI: 18.5 µM
[24]
  GI50: 4.39 µM
  TGI: 44.1 µM
[25]
  GI50: 2.1 µM
  TGI: 6.89 µM
[26]
  GI50: 8.51 µM
  TGI: 43.7 µM
[27]
  GI50: 3.88 µM
  TGI: 40.7 µM
[28]
  GI50: 10.5 µM
  TGI: 28 µM
[29]
  GI50: 14.7 µM
  TGI: 46.9 µM
[30]
  GI50: 4.26 µM
  TGI: 38.9 µM
[31]
  GI50: 3.41 µM
  TGI: 12.2 µM
[32]
  GI50: 4.15 µM
  TGI: > 100 µM
[33]
  GI50: 14.1 µM
  TGI: 35.8 µM
[34]
  GI50: 4.5 µM
  TGI: > 100 µM
[35]
  GI50: 3.31 µM
  TGI: 73.7 µM
[36]
  GI50: 3.05 µM
  TGI: 13.6 µM
[37]
  GI50: 12 µM
  TGI: 36.1 µM
[38]
  GI50: 4.38 µM
  TGI: > 100 µM
[39]
  GI50: 13.2 µM
  TGI: 40.6 µM
[40]
  GI50: 2.96 µM
  TGI: 16.6 µM
[41]
  GI50: 4.31 µM
  TGI: 18 µM
[42]
  GI50: 4.11 µM
  TGI: 21.3 µM
[43]
  GI50: 3.3 µM
  TGI: 11 µM
[44]
  GI50: 4.92 µM
  TGI: 62.6 µM
[46]
  GI50: 3.77 µM
  TGI: > 100 µM
[47]
  GI50: 3.22 µM
  TGI: > 100 µM
[48]
  GI50: 2.56 µM
  TGI: 7.44 µM
[49]
  GI50: 4.16 µM
  TGI: 30.6 µM
[50]
  GI50: 2.77 µM
  TGI: 16.1 µM
[51]
  GI50: 8.07 µM
  TGI: > 100 µM
[52]
  GI50: 3.61 µM
  TGI: 19.2 µM
[53]
  GI50: 3.73 µM
  TGI: 18.3 µM
[55]
  GI50: 3.07 µM
  TGI: 39.5 µM
